Results taken from ChEMBL document CHEMBL1201862, “PubChem BioAssay data set” (2004).
The source made the active and inactive calls.

Tests used:
[1] = target: Alkaline phosphatase, placental type (Homo sapiens, UniProt P05187); assay: PLAP enzyme inhibitors, confirmation, biochemical, luminescence (AID 1512); assay type: functional
[2] = human group III sPLA2 inhibitors, dose response, biochemical, QFRET, IC50 (AID 743457);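 further: green fluorescence rise as the enzyme cleaves BODIPY PC-A2 in liposomes; potency for inhibition of the enzyme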
[3] = HEp-2 cell cytotoxicity, dose response, cytotoxicity control for RSV inhibitor project, HTS (AID 2410); assay type: functional; conditions: human respiratory syncytial virus
[4] = Intein inhibitors as potential Tuberculosis drugs, a cytotoxicity screen. [Related pubchem assays (depositor defined):AID2221, AID2223, AID434968, AID435010, AID449749, AID449750, AID489010]; assay type: functional
[5] = target: T1, Replicative DNA helicase DnaB (Mycobacterium tuberculosis, UniProt P9WMR3); assay: DnaB intein splicing inhibitors, dose response, biochemical, cell-free fluorescence (AID 449749); assay type: functional
T1 sequence (P9WMR3 whole entry): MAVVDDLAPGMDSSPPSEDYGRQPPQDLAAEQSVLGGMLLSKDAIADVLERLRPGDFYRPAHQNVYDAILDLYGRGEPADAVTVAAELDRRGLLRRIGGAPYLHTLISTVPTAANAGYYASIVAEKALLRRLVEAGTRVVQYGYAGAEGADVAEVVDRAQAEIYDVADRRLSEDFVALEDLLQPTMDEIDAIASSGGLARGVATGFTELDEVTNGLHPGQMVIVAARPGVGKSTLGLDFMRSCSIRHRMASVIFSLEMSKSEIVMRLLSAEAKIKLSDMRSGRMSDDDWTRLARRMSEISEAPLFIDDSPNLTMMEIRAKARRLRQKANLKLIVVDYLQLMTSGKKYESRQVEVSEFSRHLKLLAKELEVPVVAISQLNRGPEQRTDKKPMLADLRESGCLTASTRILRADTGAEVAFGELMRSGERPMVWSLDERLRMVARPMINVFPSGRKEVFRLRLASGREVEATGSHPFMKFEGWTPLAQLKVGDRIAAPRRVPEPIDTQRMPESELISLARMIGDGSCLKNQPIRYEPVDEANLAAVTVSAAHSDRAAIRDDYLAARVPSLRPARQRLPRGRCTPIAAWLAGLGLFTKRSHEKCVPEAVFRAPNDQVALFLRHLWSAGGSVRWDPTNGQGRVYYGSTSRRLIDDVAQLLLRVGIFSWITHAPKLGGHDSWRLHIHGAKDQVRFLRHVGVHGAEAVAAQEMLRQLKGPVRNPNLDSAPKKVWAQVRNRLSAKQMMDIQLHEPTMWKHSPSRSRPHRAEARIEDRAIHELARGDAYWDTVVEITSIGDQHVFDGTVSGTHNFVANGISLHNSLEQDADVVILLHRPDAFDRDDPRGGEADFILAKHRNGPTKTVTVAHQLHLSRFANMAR

Protein RecA = target: T2, Protein RecA (Mycobacterium tuberculosis, UniProt P9WHJ3); assay: Fluorescence Cell-Free Homogeneous Dose Retest to Identify Inhibitors of RecA-Intein Splicing Activity. [Related pubchem assays (depositor defined):AID2097, AID2223, AID489010, AID492950]; assay type: functional
T2 sequence (P9WHJ3 whole entry): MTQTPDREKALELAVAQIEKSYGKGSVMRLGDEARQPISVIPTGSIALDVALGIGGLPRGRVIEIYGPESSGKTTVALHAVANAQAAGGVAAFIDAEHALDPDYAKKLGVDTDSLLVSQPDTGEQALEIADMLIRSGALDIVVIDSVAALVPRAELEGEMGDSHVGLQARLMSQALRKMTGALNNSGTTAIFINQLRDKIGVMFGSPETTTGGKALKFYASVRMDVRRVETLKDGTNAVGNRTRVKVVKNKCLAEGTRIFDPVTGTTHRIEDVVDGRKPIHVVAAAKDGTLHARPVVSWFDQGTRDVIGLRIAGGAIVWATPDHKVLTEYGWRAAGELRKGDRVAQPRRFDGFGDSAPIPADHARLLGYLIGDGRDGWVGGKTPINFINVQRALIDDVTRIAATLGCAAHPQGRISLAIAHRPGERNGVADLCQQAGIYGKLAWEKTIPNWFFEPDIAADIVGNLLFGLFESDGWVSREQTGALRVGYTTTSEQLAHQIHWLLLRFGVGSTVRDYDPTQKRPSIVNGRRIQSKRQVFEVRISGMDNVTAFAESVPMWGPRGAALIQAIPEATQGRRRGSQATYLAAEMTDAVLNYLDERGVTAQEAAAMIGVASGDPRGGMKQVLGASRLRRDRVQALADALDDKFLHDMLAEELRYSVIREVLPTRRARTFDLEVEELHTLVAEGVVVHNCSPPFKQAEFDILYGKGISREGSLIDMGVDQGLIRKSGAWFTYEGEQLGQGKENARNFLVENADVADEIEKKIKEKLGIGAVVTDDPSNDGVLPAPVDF

[6] = A549 cell cytotoxicity, dose response, cytotoxicity control, plate reader, cherry-pick, antagonist series (AID 743412); assay type: functional, cell-based
[7] = HepG2 cell cytotoxicity, dose response, cytotoxicity control, plate reader, cherry-pick, antagonist series (AID 743416); assay type: functional, cell-based
[8] = LGR2 antagonists, dose response, cell-based, HEK293, CRE-luciferase reporter, cherry pick, set 2 (AID 743343); assay type: functional;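 further: transfected cells were stimulated with diluted bursicon conditioned medium after compound addition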
[9] = MC4R antagonists, dose response, counter-screen for LGR2 antagonist project, cell-based, plate reader, cherry pick (AID 743444); assay type: functional;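 further: transfected HEK 293 cells stimulated with alpha-MSH peptide; potency of inhibitors of the alpha-MSH evoked signal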
[10] = HEK293 cell cytotoxicity, dose response, cytotoxicity control, plate reader, cherry-picked samples (AID 743446); assay type: functional, cell-based

Sequence of Alkaline phosphatase, placental type (P05187 whole entry): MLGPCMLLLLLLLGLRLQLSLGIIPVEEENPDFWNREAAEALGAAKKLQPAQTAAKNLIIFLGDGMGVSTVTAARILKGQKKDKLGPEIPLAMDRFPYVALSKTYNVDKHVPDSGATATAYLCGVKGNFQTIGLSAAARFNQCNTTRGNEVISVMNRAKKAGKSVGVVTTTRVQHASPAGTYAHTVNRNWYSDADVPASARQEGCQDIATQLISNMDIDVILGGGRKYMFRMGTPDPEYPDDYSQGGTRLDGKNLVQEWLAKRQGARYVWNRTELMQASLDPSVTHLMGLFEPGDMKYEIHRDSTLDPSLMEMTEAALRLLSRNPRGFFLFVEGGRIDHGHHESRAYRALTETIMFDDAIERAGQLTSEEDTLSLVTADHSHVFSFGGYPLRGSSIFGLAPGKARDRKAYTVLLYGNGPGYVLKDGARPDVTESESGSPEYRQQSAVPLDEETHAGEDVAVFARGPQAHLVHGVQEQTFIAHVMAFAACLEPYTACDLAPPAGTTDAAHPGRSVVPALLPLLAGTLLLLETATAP

Row | SMILES | IC50 [1] | IC50 [2] | CC50 [3] | CC50 [4] | AC50 [5] | EC50 (Protein RecA) | AC50 [6] | AC50 [7] | AC50 [8] | AC50 [9] | AC50 [10]
1 | CCN=C(S)NN=C(S)NCc1ccccc1 | > 100 µM (inactive) | > 122 µM (inactive) | – | – | – | – | – | – | – | – | –
2 | Cc1sc2ncnc(Sc3nnnn3-c3ccccc3)c2c1C | – | – | 11.2 µM (active) | 14.4 µM (active) | 3.83 µM (active) | 3.18 µM (active) | 10.9 µM (active) | 15.4 µM (active) | 4.15 µM (active) | 3.94 µM (active) | 19.3 µM (active)
